In test [1] the target is T1, mTOR (Homo sapiens, UniProt P42345).
T1 construct: purchased Millipore 14-770
Kind of test: Biochemical mTOR assay (Millipore mTOR assay kit). Here is the method:
The biochemical mTOR assay was carried out by the method described in the Millipore mTOR assay kit (catalogue number 14-770).

Test [2] addresses DNA-PK protein complex (Homo sapiens, UniProt P78527). Nature of the test: Biochemical DNA-PK assay (FlashPlate). The method in brief:
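Streptavidin-coated FlashPlate radiometric kinase assay, stopped with 200 mM EDTA, then wells washed with 0.9% NaCl and bound radioactivity counted. Blank (non-specific reaction) defined with a proprietary kinase inhibitor at 10 μM.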

The target in test [3] is PI3Kalpha (Homo sapiens, UniProt P42336). Kind of test: Biochemical PI3Kalpha assay (neomycin SPA, lipid phosphorylation). The note with it: human recombinant GST-PI3K. The method in brief: (§1)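 Recombinant PI3K incubated with lipid substrate and radioactive ATP for 120 min at room temperature with gentle stirring, then stopped with neomycin-coated PVT-SPA beads, ATP 60 mM and EDTA 6.2 mM in PBS. After 60 min bead binding and centrifugation, radioactive Ptdlns(3)P counted by scintillation.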
Sequence of PI3Kalpha (P42336 whole entry): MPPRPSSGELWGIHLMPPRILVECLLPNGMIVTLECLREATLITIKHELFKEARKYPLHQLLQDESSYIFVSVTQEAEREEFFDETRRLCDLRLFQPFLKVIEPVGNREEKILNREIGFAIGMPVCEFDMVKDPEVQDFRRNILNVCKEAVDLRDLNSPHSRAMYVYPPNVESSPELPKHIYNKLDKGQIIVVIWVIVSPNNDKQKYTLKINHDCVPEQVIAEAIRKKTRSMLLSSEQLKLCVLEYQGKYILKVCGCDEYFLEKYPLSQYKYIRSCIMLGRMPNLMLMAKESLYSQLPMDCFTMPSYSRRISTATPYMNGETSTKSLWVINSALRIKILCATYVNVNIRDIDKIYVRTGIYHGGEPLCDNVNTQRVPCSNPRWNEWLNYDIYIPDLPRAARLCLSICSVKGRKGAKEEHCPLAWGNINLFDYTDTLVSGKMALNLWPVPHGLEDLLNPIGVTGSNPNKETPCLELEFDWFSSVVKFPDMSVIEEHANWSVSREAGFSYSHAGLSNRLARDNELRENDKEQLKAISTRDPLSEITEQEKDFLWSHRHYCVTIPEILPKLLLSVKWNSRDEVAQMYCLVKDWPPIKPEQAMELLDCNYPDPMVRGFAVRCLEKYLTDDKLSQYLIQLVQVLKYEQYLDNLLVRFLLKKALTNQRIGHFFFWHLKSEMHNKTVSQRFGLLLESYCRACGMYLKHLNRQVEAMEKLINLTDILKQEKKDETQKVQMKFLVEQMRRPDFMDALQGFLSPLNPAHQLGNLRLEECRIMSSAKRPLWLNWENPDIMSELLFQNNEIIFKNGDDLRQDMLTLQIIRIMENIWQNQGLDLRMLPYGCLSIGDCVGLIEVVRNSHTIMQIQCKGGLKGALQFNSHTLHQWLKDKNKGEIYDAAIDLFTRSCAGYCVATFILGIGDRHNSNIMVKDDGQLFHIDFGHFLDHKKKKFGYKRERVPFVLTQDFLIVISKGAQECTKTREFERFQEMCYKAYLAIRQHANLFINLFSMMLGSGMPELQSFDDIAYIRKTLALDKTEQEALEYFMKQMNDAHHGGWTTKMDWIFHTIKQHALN
Sequence of PI3Kalpha (P27986 whole entry partner): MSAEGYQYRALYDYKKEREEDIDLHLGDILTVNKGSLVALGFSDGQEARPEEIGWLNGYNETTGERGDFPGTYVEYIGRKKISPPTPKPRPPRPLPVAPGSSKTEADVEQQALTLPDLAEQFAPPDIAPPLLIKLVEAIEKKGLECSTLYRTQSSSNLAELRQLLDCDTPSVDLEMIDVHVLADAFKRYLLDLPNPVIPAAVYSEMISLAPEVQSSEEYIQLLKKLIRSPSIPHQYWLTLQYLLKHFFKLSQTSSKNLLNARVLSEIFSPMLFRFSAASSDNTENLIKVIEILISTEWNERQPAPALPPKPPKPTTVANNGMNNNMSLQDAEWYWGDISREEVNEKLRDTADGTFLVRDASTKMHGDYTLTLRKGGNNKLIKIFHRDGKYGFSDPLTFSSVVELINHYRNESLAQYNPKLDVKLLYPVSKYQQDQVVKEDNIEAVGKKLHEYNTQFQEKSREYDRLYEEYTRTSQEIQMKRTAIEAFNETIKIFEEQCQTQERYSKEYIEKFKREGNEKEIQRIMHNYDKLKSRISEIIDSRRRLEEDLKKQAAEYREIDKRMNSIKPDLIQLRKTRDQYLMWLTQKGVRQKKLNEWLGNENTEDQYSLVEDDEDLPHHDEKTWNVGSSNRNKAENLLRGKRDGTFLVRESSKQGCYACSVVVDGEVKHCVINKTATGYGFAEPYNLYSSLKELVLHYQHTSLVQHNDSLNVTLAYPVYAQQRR

The target of test [4] is recombinant PI3Kalpha (shortened form of the catalytic subunit) (Homo sapiens, UniProt P42336). Nature of the test: BIACORE PI3K binding assay (SPR). The note with it: 25° C. Here is the method:
SPR measurements of the binding affinities and binding kinetics on PI3Kalpha surfaces with the aid of Biacore systems. The experiments are carried out on a Biacore S51 “Compound Characterization” or a Biacore T100 instrument utilising the default application “Kinetics/Affinity” Experimental conditions: recombinant PI3Kalpha (shortened form of the catalytic subunit, missing N terminal from about 100 to 150 aa, Mw about 110 kDa, prepared by Proteros Biostructures GmbH) is immobilised on Biacore CM5 chips (25° C., flow rate: 10 μl/min, utilising amine coupling at pH 7.40—Biacore Standard protocol). PI3Kalpha is employed in concentrations between 10 and 25 μg/ml. Depending on the duration of the injection time, immobilisation levels from 1700 to 11000 RU are achieved. The substances to be measured are added in the form of a titration series. The substance concentration is doubled for each subsequent injection. 10 different substance concentrations which cover a 500-fold dilution range are usually injected. […] Kinetic titration experiments are carried out at 25° C. with a flow rate of 30 μl/min, the sample contact time is 180 s, and the dissociation time is 240 s in a running buffer (20 mM HEPES pH7.40, 150 mM NaCl, 5 mM MgCl2, 1 mM DTT, 0.1 mM EDTA, 0.05% Tween 20) comprising 2% of DMSO. Buffer injections (as double references) identical to the sample injections are carried out in each case at the beginning of a continuous series. Solvent correction cycles (eight correction points, 1.4%-2.8% DMSO) are carried out at equal intervals. In order to condition the surface, at least five start-up cycles (buffer injections) are carried out. Data points are collected with a sample rate of 10 Hz. Surface regeneration is carried out after each measurement cycle, apart from after the solvent correction runs. For this purpose, two times 100 mM NaHCO3 pH 8.60 are injected for 30 sec. Data sets are processed and analysed using the Biacore S51 Evaluation software, version 1.2.1, or Biacore T100 Evaluation, version 2.0. Solvent-corrected and double-referenced association and dissociation phase data are adapted to a simple 1:1 interaction model with mass transport limitations.
In general terms: In SPR one partner is held on a chip, and binding of the other changes the refractive index at the surface.

The subject of test [5] is PI3K-dependent phosphorylation of PKB at Serin 473 in PC3 cells. Nature of the test: Cellular PI3K assay (P-S473-PKB Luminex assay in PC3 cells). The note with it: Homo sapiens, PC-3, 0.5 h; PC3 cells, 30 min, serum-free, P-S473-PKB; read-out: IC50 (cell). Type of test: cell-based. Put shortly: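 PC3 cells were exposed for 30 min under serum-free conditions to 7 concentrations of compound, then lysed. Lysates were captured overnight at 4°C on anti-total-PKB Luminex beads and detected with P-S473-PKB antibody plus PE-labelled secondary.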

Test [6] has as its target PI3Kbeta (Homo sapiens, UniProt P42338). Kind of test: Biochemical PI3Kbeta assay (neomycin SPA, lipid phosphorylation). The note with it: human recombinant GST-PI3K. Put shortly: as §1

The text below walks through data of patent US8802866B2, “Pyridinylimidazolone derivatives for the inhibition of PI3 kinases” (Merck Patent GmbH, priority 2009, dated 2014).

Structures are written as SMILES.

Usually IC50 stands for the concentration that gives 50% inhibition. For orientation: Kd means the concentration at which binding is half-saturated.

Sequence of recombinant PI3Kalpha (shortened form of the catalytic subunit) (P42336 151-1068 limits assumed): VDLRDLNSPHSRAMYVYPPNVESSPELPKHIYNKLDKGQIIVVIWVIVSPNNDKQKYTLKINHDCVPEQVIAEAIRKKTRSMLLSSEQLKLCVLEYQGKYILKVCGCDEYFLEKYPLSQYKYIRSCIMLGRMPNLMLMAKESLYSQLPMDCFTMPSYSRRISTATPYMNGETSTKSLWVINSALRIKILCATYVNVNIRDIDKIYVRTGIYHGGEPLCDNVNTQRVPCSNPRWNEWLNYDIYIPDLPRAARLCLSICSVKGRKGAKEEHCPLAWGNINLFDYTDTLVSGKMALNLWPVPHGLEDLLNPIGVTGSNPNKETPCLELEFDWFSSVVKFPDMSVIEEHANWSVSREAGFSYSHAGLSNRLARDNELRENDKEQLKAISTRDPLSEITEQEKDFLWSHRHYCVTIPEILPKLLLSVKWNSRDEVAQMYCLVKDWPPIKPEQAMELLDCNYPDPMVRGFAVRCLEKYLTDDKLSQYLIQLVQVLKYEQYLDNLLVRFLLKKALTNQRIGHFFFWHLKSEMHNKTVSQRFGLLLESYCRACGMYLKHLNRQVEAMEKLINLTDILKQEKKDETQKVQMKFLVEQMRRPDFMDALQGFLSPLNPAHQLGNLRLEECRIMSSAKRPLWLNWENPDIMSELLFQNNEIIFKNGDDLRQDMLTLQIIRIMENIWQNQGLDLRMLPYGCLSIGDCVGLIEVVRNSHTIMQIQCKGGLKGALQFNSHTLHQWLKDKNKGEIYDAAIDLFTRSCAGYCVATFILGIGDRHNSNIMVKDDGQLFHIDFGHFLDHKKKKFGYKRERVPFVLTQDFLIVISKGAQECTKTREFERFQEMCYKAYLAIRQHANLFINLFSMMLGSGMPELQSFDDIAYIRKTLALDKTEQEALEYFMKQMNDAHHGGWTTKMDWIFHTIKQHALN
Sequence of PI3Kbeta (P42338 whole entry): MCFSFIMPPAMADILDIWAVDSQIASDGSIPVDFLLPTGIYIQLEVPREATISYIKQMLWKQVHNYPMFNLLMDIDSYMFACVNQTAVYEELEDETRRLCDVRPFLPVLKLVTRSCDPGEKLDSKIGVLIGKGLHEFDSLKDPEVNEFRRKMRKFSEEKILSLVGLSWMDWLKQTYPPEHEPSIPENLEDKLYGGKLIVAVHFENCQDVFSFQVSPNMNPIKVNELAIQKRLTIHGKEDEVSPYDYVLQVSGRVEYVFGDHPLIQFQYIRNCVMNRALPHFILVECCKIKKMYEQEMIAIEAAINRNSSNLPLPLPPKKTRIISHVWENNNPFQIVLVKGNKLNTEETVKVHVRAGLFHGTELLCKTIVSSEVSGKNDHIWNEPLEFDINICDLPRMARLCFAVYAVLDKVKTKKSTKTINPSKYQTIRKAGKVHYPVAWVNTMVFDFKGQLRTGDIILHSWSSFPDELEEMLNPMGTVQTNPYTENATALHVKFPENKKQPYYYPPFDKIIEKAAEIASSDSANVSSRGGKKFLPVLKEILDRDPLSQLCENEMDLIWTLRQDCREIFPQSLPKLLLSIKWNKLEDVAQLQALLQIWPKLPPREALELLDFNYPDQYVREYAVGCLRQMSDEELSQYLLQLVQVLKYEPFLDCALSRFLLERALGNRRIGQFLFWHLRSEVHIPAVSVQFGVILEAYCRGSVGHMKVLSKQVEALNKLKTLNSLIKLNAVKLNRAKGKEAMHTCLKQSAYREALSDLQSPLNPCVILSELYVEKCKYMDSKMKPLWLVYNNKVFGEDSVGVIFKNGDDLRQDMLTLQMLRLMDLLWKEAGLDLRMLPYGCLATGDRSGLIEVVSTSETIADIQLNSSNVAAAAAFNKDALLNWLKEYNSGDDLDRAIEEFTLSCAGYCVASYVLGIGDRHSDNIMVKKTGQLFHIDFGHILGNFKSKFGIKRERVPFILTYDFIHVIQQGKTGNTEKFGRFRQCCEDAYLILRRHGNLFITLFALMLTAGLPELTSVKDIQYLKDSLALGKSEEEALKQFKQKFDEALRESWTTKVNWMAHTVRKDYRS
Sequence of PI3Kbeta (P27986 whole entry partner): as the sequence (P27986 whole entry partner) above
T1 sequence (P42345 1362-2549 limits assumed): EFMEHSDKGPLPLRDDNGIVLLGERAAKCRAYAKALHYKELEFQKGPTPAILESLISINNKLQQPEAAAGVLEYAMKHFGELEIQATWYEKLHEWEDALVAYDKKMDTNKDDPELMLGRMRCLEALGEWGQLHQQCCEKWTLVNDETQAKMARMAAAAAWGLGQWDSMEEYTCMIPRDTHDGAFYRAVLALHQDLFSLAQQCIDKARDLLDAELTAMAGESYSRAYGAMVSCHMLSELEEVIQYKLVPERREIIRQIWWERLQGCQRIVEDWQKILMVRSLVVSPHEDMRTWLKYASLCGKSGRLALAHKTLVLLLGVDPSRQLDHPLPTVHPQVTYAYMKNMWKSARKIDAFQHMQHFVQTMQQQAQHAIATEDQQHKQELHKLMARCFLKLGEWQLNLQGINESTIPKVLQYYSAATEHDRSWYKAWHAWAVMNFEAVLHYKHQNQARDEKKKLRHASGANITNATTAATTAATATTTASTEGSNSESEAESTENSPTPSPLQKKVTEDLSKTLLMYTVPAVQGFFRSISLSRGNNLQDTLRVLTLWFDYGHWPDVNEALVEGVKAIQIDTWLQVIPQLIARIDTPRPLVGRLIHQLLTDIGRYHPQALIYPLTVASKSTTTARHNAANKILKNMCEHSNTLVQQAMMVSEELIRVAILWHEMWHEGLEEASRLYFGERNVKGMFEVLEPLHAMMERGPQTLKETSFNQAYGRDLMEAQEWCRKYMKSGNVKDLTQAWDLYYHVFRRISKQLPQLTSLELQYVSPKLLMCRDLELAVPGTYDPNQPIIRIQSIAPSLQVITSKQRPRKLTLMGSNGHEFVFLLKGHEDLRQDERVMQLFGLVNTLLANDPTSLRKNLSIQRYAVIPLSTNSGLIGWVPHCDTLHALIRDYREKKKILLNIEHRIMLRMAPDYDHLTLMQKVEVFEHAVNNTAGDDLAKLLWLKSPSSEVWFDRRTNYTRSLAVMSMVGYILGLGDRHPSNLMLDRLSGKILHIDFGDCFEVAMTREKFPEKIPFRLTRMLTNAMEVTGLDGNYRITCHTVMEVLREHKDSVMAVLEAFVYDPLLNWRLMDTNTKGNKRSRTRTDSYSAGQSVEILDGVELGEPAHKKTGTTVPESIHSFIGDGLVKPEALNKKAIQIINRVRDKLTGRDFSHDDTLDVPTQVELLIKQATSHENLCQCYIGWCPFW

As to `COc1cccc(-c2ccnc(-c3cn(C)c(=O)n3-c3ccc(C(C)(C)C#N)cc3)c2)c1` [Example A3, 2-(4-{5-[4-(3-Methoxyphenyl)pyridin-2-yl]-3-methyl-2-oxo-2,3-dihydroimidazol-1-yl}phenyl)-2-methylpropionitrile], the IC50 in test [1] was > 10000 nM; in test [2], 0.1 to 100 nM; in test [3], 100 to 10000 nM; in test [5], > 10000 nM; in test [6], > 10000 nM. The Kd in test [4] was 100 to 10000 nM.
`Cn1cc(-c2cc(-c3ccc(=O)[nH]c3)ccn2)n(-c2ccc(C(C)(C)C#N)cc2)c1=O` [Example A39, 2-{4-[5-(6-Hydroxy-[3,4′]bipyridinyl-2′-yl)-3-methyl-2-oxo-2,3-dihydroimidazol-1-yl]phenyl}-2-methylpropionitrile]: the IC50 in test [1] is 100 to 10000 nM; in test [2], 0.1 to 100 nM; in test [5], > 10000 nM.
`Cn1cc(-c2cc(-c3cnc4[nH]ccc4c3)ccn2)n(-c2ccc(F)c(C(F)(F)F)c2)c1=O` [Example A51, 3-(4-Fluoro-3-trifluoromethylphenyl)-1-methyl-4-[4-(1H-pyrrolo[2,3-b]pyridin-5-yl)pyridin-2-yl]-1,3-dihydroimidazol-2-one]: the IC50 in test [1] is 100 to 10000 nM; in test [2], 0.1 to 100 nM; in test [3], 100 to 10000 nM; in test [5], 100 to 10000 nM; in test [6], > 10000 nM.
With `Cn1cc(-c2cc(-c3ccc(NS(C)(=O)=O)nc3)ccn2)n(-c2ccc(N3CCNCC3)c(C(F)(F)F)c2)c1=O` [Example A61, N-{2′-[1-Methyl-2-oxo-3-(4-piperazin-1-yl-3-trifluoromethylphenyl)-2,3-dihydro-1H-imidazol-4-yl]-[3,4′]bipyridinyl-6-yl}methanesulfonamide], the IC50 in test [1] was 100 to 10000 nM; in test [2] it was 0.1 to 100 nM; in test [3], 100 to 10000 nM; in test [5], > 10000 nM; in test [6] it was > 10000 nM.
`Cn1cc(-c2cc(-c3cnc4[nH]ccc4c3)ccn2)n(-c2ccc(N3CCN(S(C)(=O)=O)CC3)c(C(F)(F)F)c2)c1=O` [Example A74, 3-[4-(4-Methanesulfonylpiperazin-1-yl)-3-trifluoromethylphenyl]-1-methyl-4-[4-(1H-pyrrolo[2,3-b]pyridin-5-yl)pyridin-2-yl]-1,3-dihydroimidazol-2-one]: the IC50 in test [1] lay in the range of 0.1 to 100 nM; in test [2], 0.1 to 100 nM; in test [3] it was 100 to 10000 nM; in test [5], 0.1 to 100 nM; in test [6], 100 to 10000 nM.
Take `N#Cc1cccc(-n2c(-c3cc(-c4cnc5[nH]ccc5c4)ccn3)cn(C(F)F)c2=O)c1` [Example A75, 3-{3-Difluoromethyl-2-oxo-5-[4-(1H-pyrrolo[2,3-b]pyridin-5-yl)pyridin-2-yl]-2,3-dihydroimidazol-1-yl}benzonitrile]: the IC50 in test [1] was 100 to 10000 nM; in test [2] it was 0.1 to 100 nM; in test [3], 100 to 10000 nM; in test [5], 100 to 10000 nM; in test [6], > 10000 nM.
Consider `Cn1cc(-c2cc(-c3cnc4[nH]ccc4c3)ccn2)n(-c2ccccc2OC(F)(F)F)c1=O` [Example A76, 1-Methyl-4-[4-(1H-pyrrolo[2,3-b]pyridin-5-yl)pyridin-2-yl]-3-(2-trifluoromethoxy-phenyl)-1,3-dihydroimidazol-2-one], for which the IC50 was 0.1 to 100 nM in test [1]; 0.1 to 100 nM in test [2]; > 10000 nM in test [3]; > 10000 nM in test [5]; > 10000 nM in test [6].
Consider `CCN1CCN(c2ccc(-n3c(-c4cc(-c5cnc6[nH]ccc6c5)ccn4)cn(C)c3=O)cc2C(F)(F)F)CC1` [Example A77, 3-[4-(4-Ethylpiperazin-1-yl)-3-trifluoromethylphenyl]-1-methyl-4-[4-(1H-pyrrolo[2,3-b]pyridin-5-yl)pyridin-2-yl]-1,3-dihydroimidazol-2-one], for which the IC50 is > 10000 nM in test [1]; 0.1 to 100 nM in test [2]; 100 to 10000 nM in test [3]; 0.1 to 100 nM in test [5]; 100 to 10000 nM in test [6].
Turning to `Cc1cccc(-n2c(-c3cc(-c4cnc5[nH]ccc5c4)ccn3)cn(C)c2=O)c1` [Example A79, 1-Methyl-4-[4-(1H-pyrrolo[2,3-b]pyridin-5-yl)pyridin-2-yl]-3-m-tolyl-1,3-dihydro-imidazol-2-one], the IC50 in test [1] was 100 to 10000 nM; in test [2], 0.1 to 100 nM; in test [3], 100 to 10000 nM; in test [5], 100 to 10000 nM; in test [6], 100 to 10000 nM.
In the case of `CC(C)c1cccc(-n2c(-c3cc(-c4cnc5[nH]ccc5c4)ccn3)cn(C)c2=O)c1` [Example A80, 3-(3-Isopropylphenyl)-1-methyl-4-[4-(1H-pyrrolo[2,3-b]pyridin-5-yl)pyridin-2-yl]-1,3-dihydroimidazol-2-one], the IC50 is > 10000 nM in test [1]; 0.1 to 100 nM in test [2]; 100 to 10000 nM in test [3]; 100 to 10000 nM in test [5]; 100 to 10000 nM in test [6].
As for `CN1CCN(c2cc(C#N)cc(-n3c(-c4cc(-c5cnc6[nH]ccc6c5)ccn4)cn(C)c3=O)c2)CC1` [Example A98, 3-{3-Methyl-2-oxo-5-[4-(1H-pyrrolo[2,3-b]pyridin-5-yl)pyridin-2-yl]-2,3-dihydro-imidazol-1-yl}-5-(4-methylpiperazin-1-yl)benzonitrile], the IC50 in test [2] was 100 to 10000 nM; in test [3] it was 100 to 10000 nM; in test [5] it was > 10000 nM; in test [6] it was 100 to 10000 nM. The Kd in test [4] was 100 to 10000 nM.
Take `CCc1cc(-c2c[nH]c3ncc(-c4ccnc(-c5cn(C)c(=O)n5-c5ccc(C(C)(C)C#N)cc5)c4)cc23)nc(N)n1` [Example A99, 2-[4-(5-{4-[3-(2-Amino-6-ethylpyrimidin-4-yl)-1H-pyrrolo[2,3-b]pyridin-5-yl]-pyridin-2-yl}-3-methyl-2-oxo-2,3-dihydroimidazol-1-yl)phenyl]-2-methylpropionitrile]: the IC50 in test [2] was in the range of 0.1 to 100 nM; in test [3], 100 to 10000 nM; in test [5], 100 to 10000 nM; in test [6] it was 100 to 10000 nM. Also, in test [4], the Kd fell in the range of 100 to 10000 nM.
Turning to `COc1ccc(Cn2c(-c3cc(-c4cnc5[nH]ccc5c4)ccn3)cn(C)c2=O)cc1` [Example A108, 3-(4-Methoxybenzyl)-1-methyl-4-[4-(1H-pyrrolo[2,3-b]pyridin-5-yl)pyridin-2-yl]-1,3-dihydroimidazol-2-one], the IC50 was 0.1 to 100 nM in test [2], > 10000 nM in test [3], 100 to 10000 nM in test [5] and > 10000 nM in test [6]. The Kd in test [4] lay in the range of 100 to 10000 nM.
In the case of `COc1ccc(Cn2c(-c3cc(-c4cnc5[nH]ncc5c4)ccn3)cn(C)c2=O)cc1` [Example A109, 3-(4-Methoxybenzyl)-1-methyl-4-[4-(1H-pyrazolo[3,4-b]pyridin-5-yl)pyridin-2-yl]-1,3-dihydroimidazol-2-one], the IC50 lay within 0.1 to 100 nM in test [2], 100 to 10000 nM in test [3], 100 to 10000 nM in test [5] and 100 to 10000 nM in test [6]. For the same compound, the Kd in test [4] was 100 to 10000 nM.
In the case of `COc1ccc(Cn2c(-c3cc(-c4cnc(N)c(C(F)(F)F)c4)ccn3)cn(C)c2=O)cc1` [Example A110, 4-(6-Amino-5-trifluoromethyl-[3,4′]bipyridinyl-2′-yl)-3-(4-methoxybenzyl)-1-methyl-1,3-dihydroimidazol-2-one], the IC50 in test [2], in test [3], in test [5] and in test [6] was 100 to 10000 nM in each case. The Kd in test [4] lay within 100 to 10000 nM.
